Assay results: patent publication US11331314B2, “Amine substituted triazole derivatives and uses thereof” (Bayer Pharma Aktiengesellschaft, priority 2017, dated 2022)

Legend:
human V1a receptor = human V1a receptor (Homo sapiens, UniProt P37288); assay: Cellular in vitro assay for determining vasopressin receptor activity, V1a receptor cell line (photoprotein luminescence); assay type: cell-based; conditions: for IC50: CHO cell line transfected with the human V1a receptor, agonist [Arg8]-vasopressin at EC50 concentration, read-out: IC50 hV1a; for ratio IC50 hV2/hV1a: selectivity ratio of the cellular IC50 values
human V1a receptor, sequence (P37288 whole entry): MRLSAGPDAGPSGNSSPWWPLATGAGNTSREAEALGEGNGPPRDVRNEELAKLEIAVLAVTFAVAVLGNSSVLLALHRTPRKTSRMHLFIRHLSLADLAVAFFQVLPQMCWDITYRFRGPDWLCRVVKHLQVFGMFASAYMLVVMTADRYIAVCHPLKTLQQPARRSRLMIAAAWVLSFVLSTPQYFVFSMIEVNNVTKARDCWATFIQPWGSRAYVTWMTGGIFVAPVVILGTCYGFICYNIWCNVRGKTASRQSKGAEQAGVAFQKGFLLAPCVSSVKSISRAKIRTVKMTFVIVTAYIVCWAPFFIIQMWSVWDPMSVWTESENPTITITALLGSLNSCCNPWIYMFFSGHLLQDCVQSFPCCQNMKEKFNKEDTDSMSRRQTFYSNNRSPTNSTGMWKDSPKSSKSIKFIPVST
How it was run: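 CHO K1 cells stably expressing human V1a receptor with aequorin photoprotein, loaded overnight with coelenterazine. Compounds preincubated 10 min at various concentrations, then challenged with [Arg^8]-vasopressin at EC50 concentration. Calcium-driven luminescence read immediately; IC50 values derived.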

human V2 receptor = biological target: T1, human V2 receptor (Homo sapiens, UniProt P30518); assay: Cellular in vitro assay for determining vasopressin receptor activity, V2 receptor cell line (CRE-luciferase); assay type: cell-based; conditions: CHO cell line transfected with the human V2 receptor; agonist [Arg8]-vasopressin at EC50 concentration; read-out: IC50 hV2
T1 construct: expressed in transfected cells; host or cells: CHO K1 (ATCC) expressing firefly luciferase under a CRE-responsive promoter
T1 sequence (P30518 whole entry): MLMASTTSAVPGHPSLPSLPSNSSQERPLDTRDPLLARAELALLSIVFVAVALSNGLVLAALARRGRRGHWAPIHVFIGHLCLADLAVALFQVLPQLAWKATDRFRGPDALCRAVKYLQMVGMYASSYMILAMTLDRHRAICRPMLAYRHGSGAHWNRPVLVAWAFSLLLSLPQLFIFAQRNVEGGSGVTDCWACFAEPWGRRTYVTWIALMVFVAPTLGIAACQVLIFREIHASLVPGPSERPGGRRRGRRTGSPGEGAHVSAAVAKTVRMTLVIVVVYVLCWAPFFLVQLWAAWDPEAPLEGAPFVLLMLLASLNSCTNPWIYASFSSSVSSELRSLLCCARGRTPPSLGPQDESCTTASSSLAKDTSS

SMILES | IC50 (human V1a receptor) [nM] | ratio IC50 hV2/hV1a (human V1a receptor) | IC50 (human V2 receptor) [nM]
O=c1n(Cc2nc(N3CCC(O)C3)n(-c3ccccc3Cl)n2)nc(-c2ccc(Cl)cc2)n1C[C@H](O)C(F)(F)F (mixture of isomers) [Example 43, 5-(4-Chlorophenyl)-2-({1-(2-chlorophenyl)-5-[3-hydroxypyrrolidin-1-yl]-1H-1,2,4-triazol-3-yl}methyl)-4-[(2S)-3,3,3-trifluoro-2-hydroxypropyl]-2,4-dihydro-3H-1,2,4-triazol-3-one] | 0.42 | 10.5 | 4.4
O=c1n(Cc2nc(N3CCNC(C(F)(F)F)C3)n(-c3ccccc3Cl)n2)nc(-c2ccc(Cl)cc2)n1C[C@H](O)C(F)(F)F (single isomer, unassigned) [Example 68] | 0.45 | 30.3 | 13.5
NC(=O)[C@@H]1CCN(c2nc(Cn3nc(-c4ccc(Cl)cc4)n(C[C@H](O)C(F)(F)F)c3=O)nn2-c2ccccc2Cl)C1 [Example 56, (3R)-1-[1-(2-Chlorophenyl)-3-({3-(4-chlorophenyl)-5-oxo-4-[(2S)-3,3,3-trifluoro-2-hydroxypropyl]-4,5-dihydro-1H-1,2,4-triazol-1-yl}methyl)-1H-1,2,4-triazol-5-yl]pyrrolidine-3-carboxamide] | 0.73 | 7.7 | 5.65
O=C1CCC(Nc2nc(Cn3nc(-c4ccc(Cl)cc4)n(C[C@H](O)C(F)(F)F)c3=O)nn2-c2ccccc2Cl)CN1 (single isomer, unassigned) [Example 62] | 1.3 | 7.3 | 9.45
O=C1CN(c2nc(Cn3nc(-c4ccc(Cl)cc4)n(C[C@H](O)C(F)(F)F)c3=O)nn2-c2ccccc2F)CCN1 [Example 89, 4-[3-({3-(4-Chlorophenyl)-5-oxo-4-[(2S)-3,3,3-trifluoro-2-hydroxypropyl]-4,5-dihydro-1H-1,2,4-triazol-1-yl}methyl)-1-(2-fluorophenyl)-1H-1,2,4-triazol-5-yl]piperazin-2-one] | 5.45 | 14.8 | 80.5
CC(C)(C)CNc1nc(Cn2nc(-c3ccc(Cl)cc3)n(C[C@H](O)C(F)(F)F)c2=O)nn1-c1ccccc1Cl [Example 1, 5-(4-Chlorophenyl)-2-({1-(2-chlorophenyl)-5-[(2,2-dimethylpropyl)amino]-1H-1,2,4-triazol-3-yl}methyl)-4-[(2S)-3,3,3-trifluoro-2-hydroxypropyl]-2,4-dihydro-3H-1,2,4-triazol-3-one] | 0.75 | 2.5 | 1.85
O=c1n(Cc2nc(N3CCC(O)(C(F)(F)F)C3)n(-c3ccccc3Cl)n2)nc(-c2ccc(Cl)cc2)n1C[C@H](O)C(F)(F)F (single isomer, unassigned) [Example 14] | 0.96 | 6.1 | 5.85
O=c1n(Cc2nc(NCC(O)C(F)(F)F)n(-c3ccccc3Cl)n2)nc(-c2ccc(Cl)cc2)n1C[C@H](O)C(F)(F)F (mixture of isomers) [Example 53, 5-(4-Chlorophenyl)-2-{[1-(2-chlorophenyl)-5-{[3,3,3-trifluoro-2-hydroxypropyl]amino}-1H-1,2,4-triazol-3-yl]methyl}-4-[(2S)-3,3,3-trifluoro-2-hydroxypropyl]-2,4-dihydro-3H-1,2,4-triazol-3-one] | 0.52 | 3.6 | 1.85
CC(C)(O)CNc1nc(Cn2nc(-c3ccc(Cl)cc3)n(C[C@H](O)C(F)(F)F)c2=O)nn1-c1ccccc1Cl [Example 82, 5-(4-Chlorophenyl)-2-({1-(2-chlorophenyl)-5-[(2-hydroxy-2-methylpropyl)amino]-1H-1,2,4-triazol-3-yl}methyl)-4-[(2S)-3,3,3-trifluoro-2-hydroxypropyl]-2,4-dihydro-3H-1,2,4-triazol-3-one] | 0.86 | 7.5 | 6.47
COCCNc1nc(Cn2nc(-c3ccc(Cl)cc3)n(C[C@H](O)C(F)(F)F)c2=O)nn1-c1cccc(F)c1 [Example 116, 5-(4-Chlorophenyl)-2-({1-(3-fluorophenyl)-5-[(2-methoxyethyl)amino]-1H-1,2,4-triazol-3-yl}methyl)-4-[(2S)-3,3,3-trifluoro-2-hydroxypropyl]-2,4-dihydro-3H-1,2,4-triazol-3-one] | 1.35 | 1.5 | 1.98
O=c1n(Cc2nc(N3CCNC(C(F)(F)F)C3)n(-c3ccccc3Cl)n2)nc(-c2ccc(Cl)cc2)n1C[C@H](O)C(F)(F)F (single isomer, unassigned) [Example 67] | 1.16 | 19.0 | 22
CC(C)(N)CNc1nc(Cn2nc(-c3ccc(Cl)cc3)n(C[C@H](O)C(F)(F)F)c2=O)nn1-c1ccccc1F [Example 91, 2-({5-[(2-Amino-2-methylpropyl)amino]-1-(2-fluorophenyl)-1H-1,2,4-triazol-3-yl}methyl)-5-(4-chlorophenyl)-4-[(2S)-3,3,3-trifluoro-2-hydroxypropyl]-2,4-dihydro-3H-1,2,4-triazol-3-one] | 1.15 | 91.7 | 105
CS(=O)(=O)C1CN(c2nc(Cn3nc(-c4ccc(Cl)cc4)n(C[C@H](O)C(F)(F)F)c3=O)nn2-c2ccccc2Cl)C1 [Example 2, 5-(4-Chlorophenyl)-2-({1-(2-chlorophenyl)-5-[3-(methylsulfonyl)azetidin-1-yl]-1H-1,2,4-triazol-3-yl}methyl)-4-[(2S)-3,3,3-trifluoro-2-hydroxypropyl]-2,4-dihydro-3H-1,2,4-triazol-3-one] | 0.43 | 1.9 | 0.84
O=C1NCCC1Nc1nc(Cn2nc(-c3ccc(Cl)cc3)n(C[C@H](O)C(F)(F)F)c2=O)nn1-c1ccccc1Cl (single isomer, unassigned) [Example 17] | 0.5 | 3.8 | 1.9
NC(=O)[C@@H]1CCCN1c1nc(Cn2nc(-c3ccc(Cl)cc3)n(C[C@H](O)C(F)(F)F)c2=O)nn1-c1ccccc1Cl [Example 58, 1-[1-(2-Chlorophenyl)-3-({3-(4-chlorophenyl)-5-oxo-4-[(2S)-3,3,3-trifluoro-2-hydroxypropyl]-4,5-dihydro-1H-1,2,4-triazol-1-yl}methyl)-1H-1,2,4-triazol-5-yl]-L-prolinamide] | 1.65 | 13.3 | 22

Now from value to compound:

IC50 (human V1a receptor) [nM] | ratio IC50 hV2/hV1a (human V1a receptor) | IC50 (human V2 receptor) [nM] | SMILES
2.55 | 14.9 | 38 | CC(C)(C)OC(=O)N1CCCC(O)(CNc2nc(Cn3nc(-c4ccc(Cl)cc4)n(C[C@H](O)C(F)(F)F)c3=O)nn2-c2ccccc2Cl)CC1 (mixture of isomers) [Example 19, tert-Butyl 4-({[1-(2-chlorophenyl)-3-({3-(4-chlorophenyl)-5-oxo-4-[(2S)-3,3,3-trifluoro-2-hydroxypropyl]-4,5-dihydro-1H-1,2,4-triazol-1-yl}methyl)-1H-1,2,4-triazol-5-yl]amino}methyl)-4-hydroxyazepane-1-carboxylate]
0.46 | 26.1 | 12 | O=c1n(Cc2nc(NCC3(O)CCNCC3)n(-c3ccccc3Cl)n2)nc(-c2ccc(Cl)cc2)n1C[C@H](O)C(F)(F)F [Example 22, 5-(4-Chlorophenyl)-2-{[1-(2-chlorophenyl)-5-{[(4-hydroxypiperidin-4-yl)methyl]amino}-1H-1,2,4-triazol-3-yl]methyl}-4-[(2S)-3,3,3-trifluoro-2-hydroxypropyl]-2,4-dihydro-3H-1,2,4-triazol-3-one]
0.35 | 3.7 | 1.28 | CC(N)(CNc1nc(Cn2nc(-c3ccc(Cl)cc3)n(C[C@H](O)C(F)(F)F)c2=O)nn1-c1ccccc1Cl)C(F)(F)F (mixture of isomers) [Example 27, 2-{[5-{[2-Amino-3,3,3-trifluoro-2-methylpropyl]amino}-1-(2-chlorophenyl)-1H-1,2,4-triazol-3-yl]methyl}-5-(4-chlorophenyl)-4-[(2S)-3,3,3-trifluoro-2-hydroxypropyl]-2,4-dihydro-3H-1,2,4-triazol-3-one]
0.31 | 5.5 | 1.69 | NC(CNc1nc(Cn2nc(-c3ccc(Cl)cc3)n(C[C@H](O)C(F)(F)F)c2=O)nn1-c1ccccc1Cl)C(F)(F)F (single isomer, unassigned) [Example 8]
4.3 | 22.2 | 95.5 | CC(C)(N)CNc1nc(Cn2nc(-c3ccc(Cl)cc3)n(C[C@H](O)C(F)(F)F)c2=O)nn1-c1ccccc1 [Example 94, 2-({5-[(2-Amino-2-methylpropyl)amino]-1-phenyl-1H-1,2,4-triazol-3-yl}methyl)-5-(4-chlorophenyl)-4-[(2S)-3,3,3-trifluoro-2-hydroxypropyl]-2,4-dihydro-3H-1,2,4-triazol-3-one]
0.89 | 18.8 | 16.7 | NC(=O)[C@@H]1CC(F)(F)CN1c1nc(Cn2nc(-c3ccc(Cl)cc3)n(C[C@H](O)C(F)(F)F)c2=O)nn1-c1ccccc1Cl [Example 9, 1-[1-(2-Chlorophenyl)-3-({3-(4-chlorophenyl)-5-oxo-4-[(2S)-3,3,3-trifluoro-2-hydroxypropyl]-4,5-dihydro-1H-1,2,4-triazol-1-yl}methyl)-1H-1,2,4-triazol-5-yl]-4,4-difluoro-L-prolinamide]
18.5 | 148.7 | 2750 | CC(C)(N)CNc1nc(Cn2nc(-c3ccc(Cl)cc3)n(C[C@H](O)C(F)(F)F)c2=O)nn1CCC(F)(F)F [Example 111, 2-({5-[(2-Amino-2-methylpropyl)amino]-1-(3,3,3-trifluoropropyl)-1H-1,2,4-triazol-3-yl}methyl)-5-(4-chlorophenyl)-4-[(2S)-3,3,3-trifluoro-2-hydroxypropyl]-2,4-dihydro-3H-1,2,4-triazol-3-one]
